Our source for the Activity and IC50 values is ChEMBL document CHEMBL1154338, “Synthesis of modified homo-N-nucleosides from the reactions of mesityl nitrile oxide with 9-allylpurines and their influence on lipid peroxidation and thrombin inhibition” (Bioorg Med Chem Lett, 2009).

Each structure is given as a SMILES string.

Assay [1] can be described thus: Antioxidant activity assessed as inhibition of xanthine-xanthine oxidase generated superoxide anion radical production at 100 uM by nitroblue tetrazolium method. It is filed as functional. Further details: scale not given: the % may be the effect or the level left.
In assay [2] the test system is Radical scavenging activity. The assay is described as follows: Antioxidant activity assessed as DPPH free radical scavenging activity at 0.05 mM after 20 mins. The assay is classed as functional.
The test system of assay [3] is Radical scavenging activity. The assay is described as follows: Antioxidant activity assessed as DPPH free radical scavenging activity at 0.05 mM after 60 mins. The assay is classed as functional. (DPPH is a stable violet radical that fades when it is reduced.)
Assay [4] concerns Radical scavenging activity. The assay is described as follows: Antioxidant activity assessed as DPPH free radical scavenging activity at 0.1 mM after 20 mins. The assay is classed as functional.
Assay [5] has as its system Radical scavenging activity. Nature of the assay: Antioxidant activity assessed as DPPH free radical scavenging activity at 0.1 mM after 60 mins. The assay is classed as functional.
Assay [6] is described as follows: Inhibition of soybean lipoxygenase. Further details: species or system Glycine max.
The nature of assay [7]: Antioxidant activity assessed as inhibition of lipid peroxidation at 100 uM. It is filed as functional. Further details: scale not given: the % may be the effect or the level left.

In the case of `O=C(O)/C=C/c1ccc(O)c(O)c1`, the Activity in assay [1] came to 10%.

In the case of `CC(Cc1ccc(O)c(O)c1)C(C)Cc1ccc(O)c(O)c1` (stereo not given), the Activity in assay [2] worked out at 68%; in assay [3], 72%; in assay [4] it was 81%; in assay [5] it was 83%.

Regarding `Cc1cc(C)c(C2=NOC(Cn3cnc4c(N5CCOCC5)ncnc43)C2)c(C)c1` (stereo not given), in assay [6], the IC50 (usually the point on the concentration scale where inhibition reaches its midpoint) was 100 µM. In addition, the Activity in assay [7] turned out to be 81%; in assay [4], 4%; in assay [1] it was 1%; in assay [5], 4%.

As to `Cc1c(C)c2c(c(C)c1O)CCC(C)(C(=O)O)O2` (stereo not given), the Activity in assay [7] was determined as 73%.

`Cc1cc(C)c(C2=NOC(Cn3cnc4c(N5CCCC5)ncnc43)C2)c(C)c1` (stereo not given): the IC50 in assay [6] is 100 µM. Also, the Activity in assay [2] came out at 11%; in assay [7], 52%; in assay [3], 11%.
